The record followed here is patent publication US8614219B2, “Substituted pyrimidin-4-one derivatives” (Sanofi-aventis, priority 2008, dated 2013).

Chain of GSK3β (P49841 whole entry): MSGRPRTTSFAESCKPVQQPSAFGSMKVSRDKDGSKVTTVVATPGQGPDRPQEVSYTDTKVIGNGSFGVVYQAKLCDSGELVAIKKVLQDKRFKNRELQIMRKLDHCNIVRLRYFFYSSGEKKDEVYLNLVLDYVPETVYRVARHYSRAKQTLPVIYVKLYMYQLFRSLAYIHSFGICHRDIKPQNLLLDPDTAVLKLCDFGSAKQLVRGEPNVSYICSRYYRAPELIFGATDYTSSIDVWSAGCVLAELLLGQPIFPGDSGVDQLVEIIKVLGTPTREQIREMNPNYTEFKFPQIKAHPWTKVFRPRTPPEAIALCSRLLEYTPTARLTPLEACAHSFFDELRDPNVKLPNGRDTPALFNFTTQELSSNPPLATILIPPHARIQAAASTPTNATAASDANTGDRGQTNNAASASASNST

This experiment has as its target GSK3β (Homo sapiens, UniProt P49841). Kind of experiment: Inhibitory activity against GSK3β (33P-ATP phosphorylation of prephosphorylated GS1 peptide, four protocols). The note with it: protocol 4: commercial GSK3beta (Millipore), 7.5 μM GS1 peptide, 10 μM ATP, 50 mM Hepes pH 7.2, 90 minutes at room temperature. Format: biochemical. The method, then:
Four different protocols can be used. In a first protocol: 7.5 μM of prephosphorylated GS1 peptide and 10 μM ATP (containing 300,000 cpm of ^33P-ATP) were incubated in 25 mM Tris-HCl, pH 7.5, 0.6 mM DTT, 6 mM MgCl2, 0.6 mM EGTA, 0.05 mg/ml BSA buffer for 1 hour at room temperature in the presence of GSK3beta (total reaction volume: 100 microliters). In a second protocol: 4.1 μM of prephosphorylated GS1 peptide and 42 μM ATP (containing 260,000 cpm ^33P-ATP) were incubated in 80 mM Mes-NaOH, pH 6.5, 1 mM Mg acetate, 0.5 mM EGTA, 5 mM 2-mercaptoethanol, 0.02% Tween 20, 10% glycerol buffer for 2 hours at room temperature in the presence of GSK3beta. In a third protocol: 7.5 μM of prephosphorylated GS1 peptide and 10 μM ATP (containing 300,000 cpm of ^33P-ATP) were incubated in 50 mM Hepes, pH 7.2, 1 mM DTT, 1 mM MgCl2, 1 mM EGTA, 0.01% Tween 20 buffer for one hour at room temperature in the presence of GSK3beta (total reaction volume: 100 microliters). In a fourth protocol: 7.5 μM of prephosphorylated GS1 peptide and 10 μM ATP (containing 300,000 cpm of ^33P-ATP) were incubated in 50 mM Hepes, pH 7.2, 1 mM DTT, 1 mM MgCl2, 1 mM EGTA, 0.01% Tween 20 buffer for 90 minutes at room temperature in the presence of commercial GSK3beta (Millipore) (total reaction volume: 100 microliters). Inhibitors were solubilized in DMSO (final solvent concentration in the reaction medium, 1%). The reaction was stopped with 100 microliters of a solution made of 25 g polyphosphoric acid (85% P2O5), 126 ml 85% H3PO4, H2O to 500 ml and then diluted to 1:100 before use. An aliquot of the reaction mixture was then transferred to Whatman P81 cation exchange filters and rinsed with the solution described above. Incorporated ^33P radioactivity was determined by liquid scintillation spectrometry. The phosphorylated GS-1 peptide had the following sequence: NH2-[…](P)EDEE-COOH. (Woodgett, J. R. (1989) Analytical Biochemistry 180, 237-241.
With `COc1ccccc1NC(=O)C1CCCn2c1nc(-c1ccncn1)cc2=O` (racemic) [compound No. 1 of table 1, (+/−)-4-oxo-2-pyrimidin-4-yl-6,7,8,9-tetrahydro-4H-pyrido[1,2-a]pyrimidine-9-carboxylic acid N-(2-methoxy-phenyl)-amide], half-maximal inhibition (IC50) required 27 nM.

`COc1cc(Cl)ccc1C(=O)NCC1CCCCn2c1nc(-c1ccncn1)cc2=O` (racemic) [compound No. 2 of table 2, (+/−)-4-Chloro-2-methoxy-N-(4-oxo-2-pyrimidin-4-yl-4,6,7,8,9,10-hexahydro-pyrimido[1,2-a]azepin-10-ylmethyl)-benzamide] had an IC50 of 30 nM.

For `COc1cc(Cl)ccc1C(=O)NCC1CCCn2c1nc(-c1ccncn1)cc2=O` (racemic) [compound No. 8 of table 1, (+/−)-4-Chloro-2-methoxy-N-(4-oxo-2-pyrimidin-4-yl-6,7,8,9-tetrahydro-4H-pyrido[1,2-a]pyrimidin-9-ylmethyl)-benzamide], the IC50 is 19 nM.
